The source made the active and inactive calls.
Assays:
[1] = viability inhibitors of stage V gametocytes – luminescence, dose response (AID 1117278); format: functional, cell-based;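 further: gametocytes exposed to compound for 24 hours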
[2] = viability loss in human Jurkat cells – cell-based, luminescence, cytotoxicity control for P. falciparum gametocyte viability project, dose response (AID 1117277); format: functional;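 further: potency reflects loss of cellular ATP meaning fewer viable cells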
[3] = biological target: Protein Tat (Human immunodeficiency virus type 1 group M subtype B (isolate HXB2)(HIV-1), UniProt P04608); format: functional;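 further: tat binding to TAR RNA read out by fluorescence polarization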
[4] = biological target: Mitochondrial peptide methionine sulfoxide reductase (Bos taurus, UniProt P54149); experiment: Absorbance-based biochemical high throughput dose response assay for activators of Methionine sulfoxide reductase A (MsrA).; format: functional
[5] = biological target: T1, Caspase-7 (Homo sapiens, UniProt P55210); experiment: caspase-7 enzyme inhibition, selectivity check – biochemical, DEVD-R110 fluorescence, cherry-pick, selectivity assay for caspase-6 inhibitor project, dose response (AID 743295); format: functional
T1 sequence (P55210 whole entry): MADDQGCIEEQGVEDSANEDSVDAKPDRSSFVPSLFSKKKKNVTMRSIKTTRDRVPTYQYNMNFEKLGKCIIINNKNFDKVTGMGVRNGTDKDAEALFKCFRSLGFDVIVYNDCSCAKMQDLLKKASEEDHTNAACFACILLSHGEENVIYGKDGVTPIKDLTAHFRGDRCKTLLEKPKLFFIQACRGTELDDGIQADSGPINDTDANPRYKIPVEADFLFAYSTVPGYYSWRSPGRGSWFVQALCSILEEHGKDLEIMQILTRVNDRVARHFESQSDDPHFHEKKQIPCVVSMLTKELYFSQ

[6] = biological target: T2, Corticotropin-releasing factor receptor 2/Corticotropin-releasing factor-binding protein (Homo sapiens, UniProt P24387+Q13324); experiment: activators of CRF receptor 2 with binding protein – uHTS hits, confirmation (AID 602473); format: functional; details: read-out: EC50_Mean
T2 sequence (Q13324 whole entry): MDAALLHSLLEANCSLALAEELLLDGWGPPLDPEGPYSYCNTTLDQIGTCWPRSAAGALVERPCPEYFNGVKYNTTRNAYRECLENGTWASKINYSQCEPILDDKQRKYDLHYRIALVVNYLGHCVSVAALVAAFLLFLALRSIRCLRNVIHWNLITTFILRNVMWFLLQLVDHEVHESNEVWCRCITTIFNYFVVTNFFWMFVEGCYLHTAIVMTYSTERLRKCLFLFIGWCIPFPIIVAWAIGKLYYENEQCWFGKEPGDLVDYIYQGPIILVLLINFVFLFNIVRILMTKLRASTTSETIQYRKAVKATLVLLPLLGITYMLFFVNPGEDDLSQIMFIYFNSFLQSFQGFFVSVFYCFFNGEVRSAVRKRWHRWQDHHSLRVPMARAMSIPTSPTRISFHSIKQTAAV
T2 sequence (P24387 whole entry): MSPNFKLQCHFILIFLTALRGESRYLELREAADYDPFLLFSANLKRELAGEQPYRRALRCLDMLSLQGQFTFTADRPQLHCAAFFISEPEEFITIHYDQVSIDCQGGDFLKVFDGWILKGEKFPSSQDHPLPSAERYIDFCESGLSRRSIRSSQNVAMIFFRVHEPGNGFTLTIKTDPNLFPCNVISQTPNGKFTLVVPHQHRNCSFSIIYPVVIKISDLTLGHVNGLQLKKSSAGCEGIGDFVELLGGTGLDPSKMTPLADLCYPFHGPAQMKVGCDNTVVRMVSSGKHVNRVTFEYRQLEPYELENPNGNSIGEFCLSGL

[7] = biological target: T3, Caspase-6 (Homo sapiens, UniProt P55212); experiment: inhibition of CASP6 peptide cleavage – biochemical, VEID-R110 fluorescence, cherry-pick, dose response (AID 720632)
T3 sequence (P55212 whole entry): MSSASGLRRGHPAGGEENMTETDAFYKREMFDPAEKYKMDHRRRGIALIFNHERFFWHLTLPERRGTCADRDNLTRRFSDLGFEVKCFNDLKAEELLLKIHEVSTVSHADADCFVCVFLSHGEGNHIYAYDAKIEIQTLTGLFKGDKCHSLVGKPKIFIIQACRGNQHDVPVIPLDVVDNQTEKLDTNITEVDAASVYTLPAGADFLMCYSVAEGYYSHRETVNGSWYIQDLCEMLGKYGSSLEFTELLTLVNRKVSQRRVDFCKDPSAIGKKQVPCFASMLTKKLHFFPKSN

[8] = biological target: T4, Histone-lysine N-methyltransferase NSD2 (Homo sapiens, UniProt O96028); format: biochemical
T4 sequence (O96028 whole entry): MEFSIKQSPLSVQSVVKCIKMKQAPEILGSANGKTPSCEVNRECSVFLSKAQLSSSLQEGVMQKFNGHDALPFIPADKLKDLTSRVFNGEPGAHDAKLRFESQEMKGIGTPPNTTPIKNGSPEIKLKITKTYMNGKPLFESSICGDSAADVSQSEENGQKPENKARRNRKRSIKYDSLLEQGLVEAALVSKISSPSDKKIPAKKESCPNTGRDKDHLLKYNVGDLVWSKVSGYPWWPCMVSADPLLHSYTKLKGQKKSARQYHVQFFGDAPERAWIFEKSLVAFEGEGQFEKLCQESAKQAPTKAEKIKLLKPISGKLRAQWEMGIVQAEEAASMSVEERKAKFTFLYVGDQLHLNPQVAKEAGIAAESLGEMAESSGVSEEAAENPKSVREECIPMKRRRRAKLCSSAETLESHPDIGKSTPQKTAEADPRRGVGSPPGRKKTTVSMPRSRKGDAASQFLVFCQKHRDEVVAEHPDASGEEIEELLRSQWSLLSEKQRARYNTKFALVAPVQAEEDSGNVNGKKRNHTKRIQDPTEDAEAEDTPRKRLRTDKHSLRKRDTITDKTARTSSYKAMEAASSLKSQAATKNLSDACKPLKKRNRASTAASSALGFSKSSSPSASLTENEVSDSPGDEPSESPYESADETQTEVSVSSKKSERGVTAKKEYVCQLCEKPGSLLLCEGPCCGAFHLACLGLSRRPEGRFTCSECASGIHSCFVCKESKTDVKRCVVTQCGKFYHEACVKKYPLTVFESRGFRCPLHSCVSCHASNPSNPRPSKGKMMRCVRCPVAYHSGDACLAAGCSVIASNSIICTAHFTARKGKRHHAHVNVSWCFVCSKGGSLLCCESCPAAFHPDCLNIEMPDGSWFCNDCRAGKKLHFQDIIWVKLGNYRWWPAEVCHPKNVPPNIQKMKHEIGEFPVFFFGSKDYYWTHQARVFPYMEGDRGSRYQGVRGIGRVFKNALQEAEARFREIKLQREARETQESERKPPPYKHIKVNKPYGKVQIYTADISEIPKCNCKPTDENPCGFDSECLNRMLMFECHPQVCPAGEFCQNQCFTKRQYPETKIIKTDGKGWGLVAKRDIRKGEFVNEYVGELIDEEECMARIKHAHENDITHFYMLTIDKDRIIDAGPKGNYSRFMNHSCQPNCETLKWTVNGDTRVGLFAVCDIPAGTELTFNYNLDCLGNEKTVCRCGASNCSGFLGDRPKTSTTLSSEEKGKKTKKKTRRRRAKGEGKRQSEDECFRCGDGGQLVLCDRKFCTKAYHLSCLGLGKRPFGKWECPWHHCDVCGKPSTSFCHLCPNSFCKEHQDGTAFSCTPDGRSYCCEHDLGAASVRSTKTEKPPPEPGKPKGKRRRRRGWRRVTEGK

[9] = A2780 cell killing – plate reader, dry powder samples, cytotoxicity control, dose response (AID 743046); format: functional, cell-based
[10] = OVCAR-3 cell viability loss – plate reader, dry powder samples, PAX8 inhibitor project, dose response (AID 743044); format: functional, cell-based
[11] = OVCAR8 cell viability loss – plate reader, dry powder samples, PAX8 project, dose response (AID 743197); format: functional, cell-based; details: OVCAR-8
[12] = biological target: Paired box protein Pax-8 (Homo sapiens, UniProt Q06710); experiment: PAX8 transcriptional activity inhibition in RMG-I – RMG-I cells, luciferase, cherry-pick, dose response (AID 687027); format: functional, cell-based;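 further: luciferase reporter driven by Pax8 target thyroperoxidase promoter measured by SteadyGlo luminescence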
[13] = IGROV1 cell killing – plate reader, dry powder samples, PAX8 inhibitor project, dose response (AID 743043); format: functional, cell-based; details: IGROV-1
[14] = reduced cellular PGC1a acetyl-lysine signal – cell-based, cherry-picked samples, dose response (AID 720514); format: functional;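 further: potency may reflect raised or lowered acetylation signal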
[15] = cytotoxicity in MITF-independent A375 cells – cell-based, CellTiter-Glo luminescence, dry powder, set 4, counter-screen for MITF inhibitor project, dose response (AID 624364); format: functional; details: A-375;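 further: A375 melanoma cells are MITF independent so this is a counter screen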
[16] = viability loss in MITF-independent A375 cells – cell-based, CellTiter-Glo luminescence, dry powder, set 2, counter-screen for MITF inhibitor project, dose response (AID 624489); format: functional; details: A-375;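 further: actives are compounds lowering A375 viability meaning general cytotoxicity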
[17] = cytotoxicity toward HCT116 cells – cell-based, CellTiter-Glo luminescence, IC50, dose response (AID 1117332); format: functional; details: HCT-116
[18] = cytotoxicity toward HT-29 cells – cell-based, CellTiter-Glo luminescence, IC50, dose response (AID 1117330); format: functional
[19] = RKO cell viability reduction, dose response, CellTiter-Glo luminescence (AID 1117322); format: functional
[20] = rise of 2N DNA cells, HeLa – IC50, dose response (AID 1117349); format: functional, cell-based
[21] = Reduced DLD-1 viability, concentration-response, CellTiter-Glo luminescence (AID 1117352); format: functional
[22] = cytotoxicity toward Colo320 cells – cell-based, CellTiter-Glo luminescence, IC50, dose response (AID 1117334); format: functional; details: COLO 320
[23] = rise of 4N DNA cells, HeLa – IC50, dose response (AID 1117351); format: functional, cell-based
[24] = SNU-C1 cell viability reduction, dose response, CellTiter-Glo luminescence (AID 1117323); format: functional, cell-based
[25] = CellTiter-Glo luminescence survival assay, SW480 colon tumor line, concentration-response curve, half-maximal inhibitory concentration (AID 1117338); format: functional
[26] = HCT116 cell viability decrease, GSK3B pretreatment – CellTiter-Glo, IC50, dose response (AID 1117339); format: functional; details: HCT-116

Sequence of Paired box protein Pax-8 (Q06710 whole entry): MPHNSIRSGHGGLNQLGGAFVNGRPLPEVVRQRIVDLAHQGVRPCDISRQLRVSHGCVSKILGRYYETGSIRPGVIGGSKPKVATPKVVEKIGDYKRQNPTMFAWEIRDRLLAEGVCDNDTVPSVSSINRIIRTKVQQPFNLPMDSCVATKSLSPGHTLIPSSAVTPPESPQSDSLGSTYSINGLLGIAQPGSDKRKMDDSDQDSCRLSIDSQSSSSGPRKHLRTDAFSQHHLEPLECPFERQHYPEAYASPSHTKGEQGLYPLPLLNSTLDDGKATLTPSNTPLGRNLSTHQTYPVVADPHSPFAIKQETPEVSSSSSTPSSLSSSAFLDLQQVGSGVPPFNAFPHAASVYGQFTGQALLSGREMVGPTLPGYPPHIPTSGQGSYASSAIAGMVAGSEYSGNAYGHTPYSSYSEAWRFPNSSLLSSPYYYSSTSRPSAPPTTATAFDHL
Sequence of Protein Tat (P04608 whole entry): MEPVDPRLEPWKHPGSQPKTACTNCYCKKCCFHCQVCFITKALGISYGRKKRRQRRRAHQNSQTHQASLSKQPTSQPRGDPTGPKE
Sequence of Mitochondrial peptide methionine sulfoxide reductase (P54149 whole entry): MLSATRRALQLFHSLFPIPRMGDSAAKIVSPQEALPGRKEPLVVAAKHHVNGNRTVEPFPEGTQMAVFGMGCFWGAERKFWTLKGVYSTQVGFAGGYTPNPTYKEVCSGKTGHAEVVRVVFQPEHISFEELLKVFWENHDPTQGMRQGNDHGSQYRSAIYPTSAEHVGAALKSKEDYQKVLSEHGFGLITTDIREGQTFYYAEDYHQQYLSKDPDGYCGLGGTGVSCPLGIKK

Q: Which IC50 [1] does the source give for [O-][n+]1ccc(C2CC2)cc1 here?
A: > 109 µM (inactive)

Q: And the IC50 [2]?
A: > 83.4 µM (inactive)

Q: For Cc1ccc(CCC(=O)Nc2ccc(S(N)(=O)=O)cc2)o1, which IC50 [3] is on record?
A: > 100 µM (active)

Q: Which results are given for CCCN(CCC)C(=O)Cn1c(=O)n(CCC(=O)NCCc2ccccc2)c(=O)c2ccccc21?
A: IC50 [1]: > 109 µM (inactive); IC50 [2]: > 83.3 µM (inactive)

Q: With COCCn1c2nc(=O)n(-c3ccccc3)c(=O)c-2nc2ccccc21 as the molecule, how does the EC50 [4] read?
A: 95.4 µM (inactive)

Q: What about the AC50 [5] of the same molecule?
A: 8.13 µM (active)

Q: What about the EC50 [6] of the same molecule?
A: 5.14 µM (active)

Q: And the AC50 [7]?
A: 3.93 µM (active)

Q: And the AC50 [8]?
A: 12.7 µM (active)

Q: Which AC50 [9] does the source give for C[C@H]1CN([C@@H](C)CO)S(=O)(=O)c2ccc(C#Cc3ccccc3F)cc2O[C@@H]1CN(C)CC1CCOCC1 here?
A: < 0.26 µM (active)

Q: And the AC50 [10]?
A: 34.1 µM (active)

Q: And the AC50 [11]?
A: 28.9 µM (active)

Q: And the AC50 [12]?
A: 10.4 µM (active)

Q: With C[C@@H]1CCCCO[C@H](CN(C)Cc2ccc(C(F)(F)F)cc2)[C@H](C)CN([C@@H](C)CO)C(=O)c2cc(NS(=O)(=O)c3ccc(F)cc3)ccc2O1 as the molecule, how does the AC50 [9] read?
A: 55.3 µM (active)

Q: And the AC50 [10]?
A: 24 µM (active)

Q: And the AC50 [13]?
A: 37 µM (active)

Q: And the AC50 [11]?
A: 36.9 µM (active)

Q: What about the AC50 [12] of the same molecule?
A: 5.17 µM (active)

Q: Which AC50 [14] does the source give for O=C1C=CCCN1C(=O)/C=C/c1cccc(C(F)(F)F)c1 here?
A: 1.77 µM (active)

Q: With C[C@@H](NC1=C(Nc2ccccc2)C(=O)c2ccccc2C1=O)c1ccccc1 as the molecule, how does the AC50 [15] read?
A: > 70 µM (inactive)

Q: And the AC50 [16]?
A: 48.5 µM (active)

Q: What does the source list for CCCCOC(=O)c1ccc(N)cc1 [BUTAMBEN]?
A: IC50 [17]: > 20 µM (inactive); IC50 [18]: > 20 µM (inactive); IC50 [19]: 0.137 µM (active); IC50 [20]: > 10 µM (inactive); IC50 [21]: 4.56 µM (active); IC50 [22]: > 20 µM (inactive); IC50 [23]: > 10 µM (inactive); IC50 [24]: > 20 µM (inactive); IC50 [25]: 0.586 µM (active)

Q: What does the source list for COc1ccc2cc1Oc1ccc(cc1)C[C@H]1c3c(cc4c(c3Oc3cc5c(cc3OC)CCN(C)[C@@H]5C2)OCO4)CCN1C [CEPHARANTHINE]?
A: IC50 [18]: 1.36 µM (active); IC50 [26]: 3.57 µM (active); IC50 [19]: 3.79 µM (active); IC50 [20]: > 10 µM (inactive); IC50 [22]: 1.43 µM (active); IC50 [23]: > 10 µM (inactive); IC50 [25]: 0.308 µM (active)

From ChEMBL document CHEMBL1201862, “PubChem BioAssay data set” (2004)
